Structures are written as SMILES. pIC50: −log10 of the molar value.

In the test the target is T1, Interleukin-1 receptor-associated kinase 4 (Homo sapiens, UniProt Q9NWZ3).
T1 sequence (Q9NWZ3 whole entry): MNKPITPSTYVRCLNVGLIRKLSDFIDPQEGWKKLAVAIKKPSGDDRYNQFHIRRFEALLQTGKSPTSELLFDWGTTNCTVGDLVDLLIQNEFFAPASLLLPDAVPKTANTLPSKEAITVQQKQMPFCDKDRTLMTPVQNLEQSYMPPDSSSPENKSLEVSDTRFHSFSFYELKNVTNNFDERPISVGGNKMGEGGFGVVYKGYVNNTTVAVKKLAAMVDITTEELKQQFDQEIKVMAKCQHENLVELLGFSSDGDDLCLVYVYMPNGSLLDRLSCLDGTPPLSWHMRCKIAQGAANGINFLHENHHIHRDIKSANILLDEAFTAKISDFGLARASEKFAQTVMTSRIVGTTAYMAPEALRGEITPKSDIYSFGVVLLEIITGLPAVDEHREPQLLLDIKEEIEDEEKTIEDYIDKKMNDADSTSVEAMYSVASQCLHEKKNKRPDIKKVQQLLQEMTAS
Briefly: Biochemical Assay.
Experimental: The 2-hour 1 mM ATP Biochemical Assay employed a MesoScale Detection (MSD) format. […] After a 1 hour incubation of the plate for 1 hour at room temperature with gentle mixing, the plate wells were washed 3 times with 50 mM Tris, pH 7.5, 150 mM NaCl, 0.02% Tween-20.A 25 μl volume of 1:500 anti-P-Threonine Rabbit polyclonal Antibody plus 1:500 Goat-anti-Rabbit Sulfo Tag Antibody (Meso Scale Discovery R32AB-1) in 50 mM Tris, pH 7.5, 150 mM NaCl, 0.02% Tween-20 plus 2% BSA was then added to each well. After a 1-hour incubation of the plate for 1 hour at room temperature with gentle mixing, the plate wells were washed, 3 times with 50 mM Tris, pH 7.5, 150 mM NaCl, 0.02% Tween-20.
What is called pIC50 is the IC50 on a negative log10 scale, so that one unit is a factor of ten. Regarding `CC[C@H](C)Oc1nc2nc(C34COC(C)(C3)C4)cn2cc1C(=O)Nc1cccn([C@@H]2C[C@@H]2F)c1=O` (mixture of isomers) [US20240116922, Example 42], the pIC50 is 9.52.

`CC[C@H](C)Oc1cc2nc(C34COC(C)(C3)C4)cn2cc1C(=O)Nc1cccn([C@@H]2C[C@@H]2F)c1=O` (mixture of isomers) [US20240116922, Example 96] gave a pIC50 of 9.70. In the case of `CC(C)Oc1cc2nc(C34COC(C)(C3)C4)cn2cc1C(=O)Nc1ccnn(C2CC2)c1=O` [US20240116922, Example 76] it was 8.80.

The values above are taken from BindingDB's records for patent US20240116922 (Biogen Ma, 2024).
